Results on three substances are retold here after US8173767B2, “Synthetic peptide vaccines for HIV: the CBD epitope as an effective immunogen to elicit broadly neutralizing antibodies against HIV” (Institut Pasteur, priority 2003, dated 2012).

The test system of assay [1] is Midkine. In words: Effect of the CBD-1 peptide on Midkine binding and entry into cells (confocal microscopy). It counts as cell-based. On the procedure:
(§1) Several studies in laser scanning confocal immunofluorescence microscopy were conducted to investigate the interaction of the CBD-1 peptide with cells and its effect on Midkine. […] Midkine binds its low affinity receptor, surface-expressed nucleolin, before entry into cells by an active process in which lipid rafts appear to be implicated (34).

Assay [2] has as its system rabbits (Fauves de Bourgogne). The experiment in a line: ELISA of sera from rabbit immunized with the CBD-1 peptide (plates coated with CBD-1). It counts as in vivo. Here is the method: The biotinylated CBD-1 peptide was solubilized in water containing 10% DMSO at a concentration of 2 mg/ml. 100 μg of this solution (50 μl) was mixed with 50 μg of streptavidin in 250 μl of distilled water. This solution was then mixed with 250 μl of complete Freund's adjuvant (CFA) for the first injection and incomplete Freund's adjuvant (IFA) for the following injections. 10 ml of blood was collected from the rabbits before the first injection of antigen; this serum was referred to as S0 or pre-immune serum.
The rabbits (Fauves de Bourgogne) were injected intramuscularly with 500 μl of the antigen/adjuvant mixture. The following Table 1 presents the injection and bleeding dates of the rabbit named “Aldernay”:
All sera were tested by ELISA using 2 types of plates (PVC and Maxisorp) coated with the CBD-1 peptide. The optical density (OD) was measured at 450 nm. An OD value above 0.20 was considered positive.
A general note: ELISA stands for enzyme-linked immunosorbent assay.

The test system of assay [3] is HeLa cells. In words: Entry of the CBD-1 peptide into cells (confocal immunofluorescence microscopy). It counts as cell-based. On the procedure:
as §1
On intact cells, the CBD-1 peptide appeared to interact with caveolin at the plasma membrane.
HeLa cells in culture medium were incubated (45 min at 37° C.) with the biotinylated CBD-1 peptide (5 μM). Cells were then washed and fixed with paraformaldehyde/Triton X-100 solution. […] The secondary antibody was Texas Red dye-conjugated donkey anti-rabbit IgG (Jackson ImmunoResearch Laboratories, PA). Confocal microscopy was performed as described previously (6).

For assay [4], the system named is rabbits (Fauves de Bourgogne). In words: ELISA of sera from rabbit immunized with the C-20 peptide (plates coated with C-20). It is filed as in vivo. The settings on record: rabbit Hermione; after the first 2 injections; serum dilution 1/2000. Here is the method:
A biotinylated C-20 peptide was synthesized as in Example 2. After synthesis the biotinylated C-20 peptide was solubilized in water containing 10% DMSO at a concentration of 2 mg/ml. 100 μg of this solution (corresponding to 50 μl) was mixed with 50 μg of streptavidin in 250 μl distilled water. This solution was then mixed with 250 μl of adjuvant; complete Freund's adjuvant (CFA) for the first injection and incomplete Freund's adjuvant (IFA) for the following injections. Rabbits (Fauves de Bourgogne) were injected intramuscularly with 500 μl of the antigen/adjuvant mixture. 10 ml of blood was collected from the rabbits before the first injection of antigen. This serum is referred to as S0 or pre-immune serum.
All sera were tested by ELISA using 2 types of plates (PVC and Maxisorp) coated with the C-20 peptide.

Assay [5] deals with T1, caveolin (Homo sapiens, UniProt Q03135).
T1 construct: endogenous in cells
T1 sequence (Q03135 1-178): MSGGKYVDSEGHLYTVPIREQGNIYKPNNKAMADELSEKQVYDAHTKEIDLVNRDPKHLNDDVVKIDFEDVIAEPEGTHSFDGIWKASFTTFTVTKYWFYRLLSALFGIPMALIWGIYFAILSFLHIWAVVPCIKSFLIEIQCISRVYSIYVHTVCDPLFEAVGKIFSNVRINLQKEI
The experiment in a line: Binding of biotinylated CBD-1 to caveolin in crude MT4 cell extracts (avidine-sepharose, immunoblot). Here is the method: MT4 cells were extracted in buffer containing 10 mM Hepes, pH 7.6, 50 mM KCl, 400 mM NaCl, 1 mM EDTA, protease inhibitor cocktail and 1% Triton X-100®. Extracts were centrifuged at 12,000×g and the supernatants were stored at […]. 100 μl of cell extracts were first diluted with 400 μl of homogenization buffer and left at 4° C. for 10 minutes before centrifuging at 12,000×g.
The diluted supernatants were then incubated at 4° C. in the presence of 0, 2, 5, 10 and 20 μM of the biotinylated CBD-1 peptide. After 90 minutes, 100 μl of avidine-sepharose were added in each sample and the samples were further incubated at 4° C. for 2 hours with gentle shaking. The samples were then washed extensively with PBS and proteins bound to avidine-sepharose were eluted in 100 μl of electrophoresis sample buffer containing SDS and analyzed by SDS-PAGE (using a 12.5% polyacrylamide gel) for immunoblotting with rabbit anti-caveolin 1 antibodies ([…]) as previously described (6).
Cell extracts were first incubated with 50 μM of CBD-1 (+) or without CBD-1 (−) before the addition of 10 μM biotinylated CBD-1 and further processed as above. Lane E represents the analysis of crude cell extracts diluted 1-fold in the electrophoresis sample buffer. […]
A general note: In western blotting, separated proteins are transferred to a membrane and probed.

Ends that are not written are not given here. * marks the point of attachment. Biotin = O=C1N[C@H]2[C@H](CS[C@H]2CCCCC(=O)*)N1

On to “L-E-Q-I-W-N-N-M-T-W-M-Q-W-D-K (LEQIWNNMTWMQWDK) [CBD-1 peptide]”, for which, in assay [1], the “Midkine binding to cells” value is “without affecting Midkine binding to cells” and the “entry of Midkine into cells” value was “blocks entry of Midkine into cells”. Moreover, the “antibodies against CBD-1 in serum (ELISA)” value in assay [2] (after the first 3 injections, serum dilution 1/2,000) is listed as “significant amount of antibodies against CBD-1”. Also, the “immunogenicity of the peptide (anti-CBD-1 antibodies in serum, ELISA)” value in assay [2] (rabbit Aldernay, intramuscular, biotinylated peptide with streptavidin in CFA/IFA, OD 450 nm above 0.20 positive) is listed as “immunogenic”. In addition, the “entry of the peptide into cells” value in assay [3] (dependence on incubation temperature) is “occurred at 37 °C but not at 20 °C”.

For “DGIWKASFTTFTVTKYWFYR (DGIWKASFTTFTVTKYWFYR) [C-20 peptide]”, in assay [4], the “antibodies against C-20 in serum (ELISA)” value was “significant amount of antibodies against C-20”.

In the case of “biotinylated CBD-1: CBD-1 peptide with a biotinyl moiety coupled at the N terminus (Biotin-LEQIWNNMTWMQWDK)”, the “caveolin purified from crude extracts with the biotinylated peptide” value in assay [5] (0, 2, 5, 10 and 20 μM biotinylated CBD-1, 4° C.) is “in a dose dependent manner”. The “capacity to bind caveolin in the presence of excess CBD-1” value in assay [5] (50 μM CBD-1 before 10 μM biotinylated CBD-1) is listed as “reduced capacity”. Further, in assay [3] (HeLa cells, 5 μM, 45 min at 37° C.), the “localization of the peptide in cells” value is “localized in the cytoplasm”.
